In ChEMBL document CHEMBL1201862, “PubChem BioAssay data set” (2004) one finds IC50, EC50 and AC50 data, which are given here for two compounds.

Broadly, the IC50 is the concentration that inhibits the measured activity by half. The term EC50 denotes the midpoint of the concentration-response curve. By AC50 is commonly meant the midpoint of the concentration-response curve, whichever way the signal moves.

What all share (assay type): functional
The target of experiment [1] is T1, Sentrin-specific protease 7 (Homo sapiens, UniProt Q9BQF6).
T1 sequence (Q9BQF6 whole entry): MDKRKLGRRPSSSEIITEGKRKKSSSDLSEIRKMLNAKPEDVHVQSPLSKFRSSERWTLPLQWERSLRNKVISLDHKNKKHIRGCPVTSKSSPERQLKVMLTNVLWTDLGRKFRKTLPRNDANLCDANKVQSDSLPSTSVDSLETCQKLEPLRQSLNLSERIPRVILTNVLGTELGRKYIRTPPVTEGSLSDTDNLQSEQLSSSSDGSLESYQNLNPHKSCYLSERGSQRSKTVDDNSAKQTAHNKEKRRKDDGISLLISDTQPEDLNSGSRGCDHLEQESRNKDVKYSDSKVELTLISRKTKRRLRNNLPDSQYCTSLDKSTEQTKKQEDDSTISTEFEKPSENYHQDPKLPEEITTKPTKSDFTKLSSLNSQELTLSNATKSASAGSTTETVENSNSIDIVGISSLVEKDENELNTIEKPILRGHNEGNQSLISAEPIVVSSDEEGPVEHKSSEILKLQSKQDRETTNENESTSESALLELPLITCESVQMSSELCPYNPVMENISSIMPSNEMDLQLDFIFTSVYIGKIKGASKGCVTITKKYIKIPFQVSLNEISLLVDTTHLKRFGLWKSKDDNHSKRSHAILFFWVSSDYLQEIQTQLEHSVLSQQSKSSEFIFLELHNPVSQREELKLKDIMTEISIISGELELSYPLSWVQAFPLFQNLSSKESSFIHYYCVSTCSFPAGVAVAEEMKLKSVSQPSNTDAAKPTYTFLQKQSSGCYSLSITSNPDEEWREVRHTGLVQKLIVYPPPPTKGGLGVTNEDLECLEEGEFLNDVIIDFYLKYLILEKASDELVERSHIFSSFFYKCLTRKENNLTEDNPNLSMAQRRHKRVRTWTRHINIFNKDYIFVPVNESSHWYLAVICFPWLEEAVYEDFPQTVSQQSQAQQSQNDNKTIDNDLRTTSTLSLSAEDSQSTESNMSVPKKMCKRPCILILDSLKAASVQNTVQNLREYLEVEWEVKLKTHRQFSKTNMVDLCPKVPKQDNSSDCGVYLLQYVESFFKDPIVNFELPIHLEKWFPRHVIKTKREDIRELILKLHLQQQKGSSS

Experiment [2] has as its target T1, Sentrin-specific protease 7. Nature of the experiment: inhibition of human SENP7 cleavage activity – biochemical, luminescence, SAR follow-up (AID 504497).
The target in experiment [3] is T2, Sentrin-specific protease 8 (Homo sapiens, UniProt Q96LD8).
T2 sequence (Q96LD8 whole entry): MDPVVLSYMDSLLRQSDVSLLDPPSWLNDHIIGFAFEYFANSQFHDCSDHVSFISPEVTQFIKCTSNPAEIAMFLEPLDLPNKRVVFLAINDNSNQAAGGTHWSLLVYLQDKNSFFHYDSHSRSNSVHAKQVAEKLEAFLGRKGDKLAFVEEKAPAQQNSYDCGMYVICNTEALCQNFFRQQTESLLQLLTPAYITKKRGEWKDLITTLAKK
In words: inhibition of human SENP8 cleavage activity – biochemical, luminescence, SAR follow-up (AID 504501).

Experiment [4] has as its target T3, Caspase-3 (Homo sapiens, UniProt P42574).
T3 sequence (P42574 whole entry): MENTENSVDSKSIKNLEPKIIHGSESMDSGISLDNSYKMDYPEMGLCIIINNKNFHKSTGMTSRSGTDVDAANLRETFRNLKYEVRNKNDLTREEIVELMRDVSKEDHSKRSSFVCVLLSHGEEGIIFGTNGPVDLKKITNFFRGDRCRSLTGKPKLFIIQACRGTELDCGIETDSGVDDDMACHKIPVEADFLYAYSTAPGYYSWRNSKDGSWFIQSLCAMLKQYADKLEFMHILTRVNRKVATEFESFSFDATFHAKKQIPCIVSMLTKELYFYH

The target of experiment [5] is T2, Sentrin-specific protease 8.
The target in experiment [6] is Voltage-dependent T-type calcium channel subunit alpha-1H (Homo sapiens, UniProt O95180).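 Also: channel activity triggered by adding a high calcium stimulation buffer.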
The target of experiment [7] is T3, Caspase-3. Nature of the experiment: SAR Analysis of small molecule inhibitors of Sentrin-specific proteases (SENPs) using a Caspase-3 Selectivity assay. [Related pubchem assays (depositor defined):AID2540, AID2599, AID434973, AID489001].
Experiment [8] has as its target T4, Sentrin-specific protease 6 (Homo sapiens, UniProt Q9GZR1).
T4 sequence (Q9GZR1 whole entry): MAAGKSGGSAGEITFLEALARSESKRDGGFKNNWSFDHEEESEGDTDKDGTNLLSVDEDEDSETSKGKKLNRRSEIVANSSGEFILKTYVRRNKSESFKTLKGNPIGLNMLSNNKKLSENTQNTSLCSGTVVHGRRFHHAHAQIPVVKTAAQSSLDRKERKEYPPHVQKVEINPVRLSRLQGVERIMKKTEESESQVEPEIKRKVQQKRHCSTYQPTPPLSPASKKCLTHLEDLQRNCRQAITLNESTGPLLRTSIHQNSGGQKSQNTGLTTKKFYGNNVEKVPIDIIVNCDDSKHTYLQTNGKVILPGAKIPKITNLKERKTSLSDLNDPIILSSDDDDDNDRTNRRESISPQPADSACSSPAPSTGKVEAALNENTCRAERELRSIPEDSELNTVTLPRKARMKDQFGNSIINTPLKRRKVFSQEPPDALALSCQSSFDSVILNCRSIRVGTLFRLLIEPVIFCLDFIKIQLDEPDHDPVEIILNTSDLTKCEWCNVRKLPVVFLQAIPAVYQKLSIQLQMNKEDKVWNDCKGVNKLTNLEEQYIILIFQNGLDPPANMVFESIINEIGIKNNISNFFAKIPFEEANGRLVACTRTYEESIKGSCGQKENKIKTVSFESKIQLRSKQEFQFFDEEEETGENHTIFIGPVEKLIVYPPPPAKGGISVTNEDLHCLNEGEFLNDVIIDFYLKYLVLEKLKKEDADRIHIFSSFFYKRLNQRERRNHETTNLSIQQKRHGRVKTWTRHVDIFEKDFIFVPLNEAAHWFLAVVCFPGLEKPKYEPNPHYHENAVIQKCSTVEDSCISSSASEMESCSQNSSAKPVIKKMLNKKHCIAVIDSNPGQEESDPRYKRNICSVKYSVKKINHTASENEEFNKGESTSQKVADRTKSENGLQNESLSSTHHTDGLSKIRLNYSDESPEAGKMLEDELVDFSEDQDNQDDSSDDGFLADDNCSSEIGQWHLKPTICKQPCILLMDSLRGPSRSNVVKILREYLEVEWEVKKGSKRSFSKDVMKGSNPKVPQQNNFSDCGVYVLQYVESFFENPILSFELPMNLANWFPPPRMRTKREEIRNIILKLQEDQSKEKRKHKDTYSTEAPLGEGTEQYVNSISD

In experiment [9] the target is T4, Sentrin-specific protease 6. Nature of the experiment: SAR Analysis of small molecule inhibitors of Sentrin-specific protease 6 (SENP6) using a Luminescent assay. [Related pubchem assays (depositor defined):AID2582, AID2599].
The subject of experiment [10] is HeLa. In words: ATP-based viability loss in HeLa cells – cell-based, CellTiter-Glo luminescence, cherry-pick samples, cytotoxicity control for MITF activator project, dose response (AID 540259). Particulars: Homo sapiens. (In general: In ATP-based viability assays light output follows the ATP content of the culture.)

Active and inactive are the calls of the source. Rule as the data show it, for most assays here: actives have a measured IC50 and inactives only a lower limit. Some results are limits rather than exact numbers.

Chain of Voltage-dependent T-type calcium channel subunit alpha-1H (O95180 whole entry): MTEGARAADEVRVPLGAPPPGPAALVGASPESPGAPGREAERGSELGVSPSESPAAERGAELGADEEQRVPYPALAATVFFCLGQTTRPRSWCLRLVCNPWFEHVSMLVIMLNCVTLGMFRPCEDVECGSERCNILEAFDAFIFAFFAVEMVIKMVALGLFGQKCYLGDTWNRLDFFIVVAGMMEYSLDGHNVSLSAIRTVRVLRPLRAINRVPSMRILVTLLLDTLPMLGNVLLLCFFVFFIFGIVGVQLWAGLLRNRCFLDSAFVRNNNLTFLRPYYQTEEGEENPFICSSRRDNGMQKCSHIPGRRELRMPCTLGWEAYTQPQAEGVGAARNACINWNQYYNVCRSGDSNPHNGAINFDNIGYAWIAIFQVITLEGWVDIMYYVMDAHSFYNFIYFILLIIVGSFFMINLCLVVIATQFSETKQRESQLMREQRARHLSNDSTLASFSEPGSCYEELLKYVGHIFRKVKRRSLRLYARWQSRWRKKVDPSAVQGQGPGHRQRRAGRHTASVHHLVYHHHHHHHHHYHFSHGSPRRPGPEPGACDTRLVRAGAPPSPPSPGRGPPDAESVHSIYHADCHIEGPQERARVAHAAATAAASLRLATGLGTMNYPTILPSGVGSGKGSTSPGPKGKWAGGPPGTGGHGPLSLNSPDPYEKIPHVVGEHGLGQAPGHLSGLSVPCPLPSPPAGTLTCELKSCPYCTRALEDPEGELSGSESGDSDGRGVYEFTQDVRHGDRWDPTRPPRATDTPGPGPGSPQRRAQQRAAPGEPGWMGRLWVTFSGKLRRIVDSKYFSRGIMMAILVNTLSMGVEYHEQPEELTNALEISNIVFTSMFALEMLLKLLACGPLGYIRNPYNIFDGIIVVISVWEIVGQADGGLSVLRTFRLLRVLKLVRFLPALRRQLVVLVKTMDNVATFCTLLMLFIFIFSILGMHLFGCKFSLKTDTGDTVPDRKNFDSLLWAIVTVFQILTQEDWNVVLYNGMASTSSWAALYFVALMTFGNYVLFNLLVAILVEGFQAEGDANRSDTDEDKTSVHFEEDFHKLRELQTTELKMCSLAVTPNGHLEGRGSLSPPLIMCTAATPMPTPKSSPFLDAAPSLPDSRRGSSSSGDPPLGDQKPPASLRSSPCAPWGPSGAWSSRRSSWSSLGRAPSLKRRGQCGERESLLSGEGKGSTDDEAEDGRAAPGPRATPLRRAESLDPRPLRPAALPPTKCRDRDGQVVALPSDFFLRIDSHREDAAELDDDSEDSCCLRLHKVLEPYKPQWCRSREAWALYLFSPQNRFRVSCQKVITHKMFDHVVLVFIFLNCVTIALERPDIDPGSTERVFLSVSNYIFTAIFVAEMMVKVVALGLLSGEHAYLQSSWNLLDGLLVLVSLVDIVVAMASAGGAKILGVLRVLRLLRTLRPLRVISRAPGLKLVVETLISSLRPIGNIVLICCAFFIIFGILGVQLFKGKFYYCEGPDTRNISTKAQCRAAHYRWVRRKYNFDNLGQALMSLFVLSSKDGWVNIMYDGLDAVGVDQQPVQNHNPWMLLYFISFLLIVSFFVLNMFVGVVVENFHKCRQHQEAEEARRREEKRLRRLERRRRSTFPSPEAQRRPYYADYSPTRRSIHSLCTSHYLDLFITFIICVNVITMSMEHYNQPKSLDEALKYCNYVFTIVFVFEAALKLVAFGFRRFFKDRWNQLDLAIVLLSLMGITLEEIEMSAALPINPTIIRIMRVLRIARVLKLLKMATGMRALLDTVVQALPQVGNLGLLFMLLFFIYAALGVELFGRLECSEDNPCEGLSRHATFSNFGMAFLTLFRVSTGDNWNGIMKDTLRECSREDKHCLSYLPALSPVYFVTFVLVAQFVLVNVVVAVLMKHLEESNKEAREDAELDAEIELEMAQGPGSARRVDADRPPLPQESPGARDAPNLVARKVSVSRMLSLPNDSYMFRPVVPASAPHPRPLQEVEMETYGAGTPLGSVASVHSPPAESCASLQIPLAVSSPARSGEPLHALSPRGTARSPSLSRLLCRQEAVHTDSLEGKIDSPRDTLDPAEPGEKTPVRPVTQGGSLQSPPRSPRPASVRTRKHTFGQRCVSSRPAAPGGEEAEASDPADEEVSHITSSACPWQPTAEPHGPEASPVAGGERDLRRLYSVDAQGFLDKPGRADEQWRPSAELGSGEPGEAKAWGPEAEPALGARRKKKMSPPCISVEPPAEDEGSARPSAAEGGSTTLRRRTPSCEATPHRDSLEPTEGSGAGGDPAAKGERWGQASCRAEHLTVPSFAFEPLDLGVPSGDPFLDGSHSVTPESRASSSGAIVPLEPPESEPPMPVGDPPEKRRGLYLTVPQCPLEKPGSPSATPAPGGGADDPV

`Cc1ccc2nc(-c3cccnc3SCC(=O)N3c4ccccc4CC3C)[nH]c2c1` (stereo not drawn): the IC50 in experiment [1] was 2.9 µM (active); in experiment [2] it was 5.66 µM (active); in experiment [3], 6.28 µM (active); in experiment [4], 4.22 µM (active); in [5] it was 1.56 µM (active); in [7], 5.3 µM (active). Further, the values for the IC50 in experiment [8] and in [9] were > 100 µM (inactive) and 5.76 µM (active), respectively. Besides, the EC50 in experiment [6] was 11.2 µM (active).
For `Fc1ccccc1COc1ccc(C(=S)N2CCCC2)cc1`, the IC50 in experiment [1] was 10.9 µM (active); in experiment [2], 1.64 µM (active); in experiment [3], 1.55 µM (active); in experiment [4] it was 9.99 µM (active); in experiment [5], 3.21 µM (active); in experiment [7], 0.742 µM (active). Moreover, the results for the half-inhibitory concentration (IC50) in experiment [8] and in experiment [9] were 17.1 µM (active) and 1.17 µM (active), respectively. Further, in [10], the AC50 was 162 µM (active).
